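96-well plates; 48 h exposure; 5 concentrations. Endpoints by linear interpolation between flanking doses. Not reached: highest tested concentration assigned. GI50: concentration for 50% inhibition of growth.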 Active and inactive are the calls of the source. No stated cut-off is given here; in the data, active = GI50 up to about 1.1 µM and inactive = higher.
Assays:
Experiment in all cases: growth of human tumour cells (NCI), 48 h
MOLT-4 = tested on: MOLT-4
U-251 = tested on: U-251
OVCAR-3 = tested on: OVCAR-3
HCT-15 = tested on: HCT-15
A498 = tested on: A498
SF-295 = tested on: SF-295
OVCAR-4 = tested on: OVCAR-4
HOP-62 = tested on: HOP-62
SK-MEL-5 = tested on: SK-MEL-5
Malme-3M = tested on: Malme-3M
RXF 393 = tested on: RXF 393
TK-10 = tested on: TK-10
MCF7 = tested on: MCF7
CAKI-1 = tested on: CAKI-1
IGROV-1 = tested on: IGROV-1
NCI-H23 = tested on: NCI-H23
UO-31 = tested on: UO-31
DU-145 = tested on: DU-145
SN12C = tested on: SN12C
ACHN = tested on: ACHN

Measured: GI50

COc1ccc(S(=O)(=O)O)cc1-n1nc(C(=O)Nc2ccccc2)n[n+]1-c1cc(S(=O)(=O)[O-])ccc1OC
> 100 µM: HCT-15
inactive: MOLT-4 > 100 µM | U-251 > 100 µM | OVCAR-3 > 100 µM | A498 > 100 µM | SF-295 > 100 µM | OVCAR-4 > 100 µM | HOP-62 > 100 µM | SK-MEL-5 > 100 µM | Malme-3M > 100 µM | RXF 393 > 100 µM | TK-10 > 100 µM | MCF7 > 100 µM | CAKI-1 > 100 µM | IGROV-1 > 100 µM | NCI-H23 > 100 µM | UO-31 > 100 µM | DU-145 > 100 µM | SN12C > 100 µM | ACHN > 100 µM

O=c1[nH]c(=S)[nH]cc1CN1CCOCC1
> 100 µM: HCT-15
inactive: MOLT-4 > 100 µM | U-251 > 100 µM | OVCAR-3 > 100 µM | A498 > 100 µM | SF-295 > 100 µM | OVCAR-4 > 100 µM | HOP-62 > 100 µM | SK-MEL-5 > 100 µM | Malme-3M > 100 µM | RXF 393 > 100 µM | TK-10 > 100 µM | MCF7 > 100 µM | CAKI-1 > 100 µM | IGROV-1 > 100 µM | NCI-H23 > 100 µM | UO-31 > 100 µM | DU-145 > 100 µM | SN12C > 100 µM | ACHN > 100 µM

C[N+](CCCl)(CCCl)Cc1cccc2cccc([N+](=O)[O-])c12
> 100 µM: HCT-15
inactive: MOLT-4 60.5 µM | U-251 > 100 µM | OVCAR-3 44.7 µM | A498 > 100 µM | SF-295 > 100 µM | OVCAR-4 57.7 µM | HOP-62 89.1 µM | SK-MEL-5 53.3 µM | Malme-3M 81.1 µM | RXF 393 > 100 µM | TK-10 > 100 µM | MCF7 38.2 µM | CAKI-1 31 µM | IGROV-1 56.4 µM | NCI-H23 30 µM | UO-31 > 100 µM | DU-145 > 100 µM | SN12C 45.5 µM | ACHN 44.5 µM

OCCc1ccsc1-c1sc(-c2cc(CCO)c(-c3sccc3CCO)s2)cc1CCO
inactive: MOLT-4 7.89 µM | U-251 12.7 µM | OVCAR-3 18.1 µM | A498 22.5 µM | SF-295 15.1 µM | OVCAR-4 15.6 µM | HOP-62 14.5 µM | SK-MEL-5 15.6 µM | Malme-3M 11.1 µM | RXF 393 2.77 µM | TK-10 19.5 µM | MCF7 15.7 µM | CAKI-1 22.8 µM | IGROV-1 15.7 µM | NCI-H23 15.8 µM | UO-31 12.4 µM | DU-145 15.5 µM | SN12C 21.3 µM | ACHN 15.8 µM
12.4 µM: HCT-15

From ChEMBL document CHEMBL1201862, “PubChem BioAssay data set” (2004)
